Reference: US20260078108A1, “SOLID FORMS OF A ROCK INHIBITOR” (REDX PHARMA PLC, priority 2022, published 2026)

Biological target: T1, LATS2 (Homo sapiens, UniProt Q9NRM7)
T1 sequence (Q9NRM7 1-1088): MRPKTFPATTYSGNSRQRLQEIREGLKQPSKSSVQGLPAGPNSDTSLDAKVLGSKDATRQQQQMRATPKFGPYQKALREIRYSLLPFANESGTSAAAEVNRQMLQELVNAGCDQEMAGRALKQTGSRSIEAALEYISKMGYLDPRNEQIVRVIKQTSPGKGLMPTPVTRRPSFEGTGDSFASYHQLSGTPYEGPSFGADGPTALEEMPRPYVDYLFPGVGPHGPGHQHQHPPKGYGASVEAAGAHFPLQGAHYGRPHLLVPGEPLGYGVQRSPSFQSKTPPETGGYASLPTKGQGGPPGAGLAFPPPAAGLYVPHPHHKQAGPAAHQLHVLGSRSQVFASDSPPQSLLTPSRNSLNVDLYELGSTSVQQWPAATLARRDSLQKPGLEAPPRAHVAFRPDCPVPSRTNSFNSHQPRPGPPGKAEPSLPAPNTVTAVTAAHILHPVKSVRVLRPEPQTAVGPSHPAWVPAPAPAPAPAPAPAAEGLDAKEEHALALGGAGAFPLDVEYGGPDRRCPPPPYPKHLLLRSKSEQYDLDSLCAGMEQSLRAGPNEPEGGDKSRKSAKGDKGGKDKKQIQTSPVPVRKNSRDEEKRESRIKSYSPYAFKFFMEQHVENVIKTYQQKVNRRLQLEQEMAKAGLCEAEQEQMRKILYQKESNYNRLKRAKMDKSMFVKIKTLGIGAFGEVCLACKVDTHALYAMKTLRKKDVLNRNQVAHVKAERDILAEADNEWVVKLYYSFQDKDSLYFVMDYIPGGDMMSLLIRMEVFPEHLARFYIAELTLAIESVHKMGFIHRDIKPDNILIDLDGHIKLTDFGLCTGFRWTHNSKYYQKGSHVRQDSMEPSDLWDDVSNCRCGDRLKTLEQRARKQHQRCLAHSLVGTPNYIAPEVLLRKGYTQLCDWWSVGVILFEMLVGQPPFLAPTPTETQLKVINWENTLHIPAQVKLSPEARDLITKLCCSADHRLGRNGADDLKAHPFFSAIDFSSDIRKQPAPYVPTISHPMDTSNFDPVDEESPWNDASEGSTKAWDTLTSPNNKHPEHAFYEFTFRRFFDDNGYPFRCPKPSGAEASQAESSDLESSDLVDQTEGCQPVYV
Assay: Kinase panel 33P-ATP filter assay, LATS2
Format: biochemical
Conditions: HCl salt tested; ATP Conc. 30 μM (Km); read-out: Compound IC50 (nM) LATS2
Method: The HCl salts of S enantiomer and the R enantiomer of compound A were tested against a panel of kinases.
Compounds were received as powder and resuspended to 10 mM DMSO stock. Compounds were tested in 10-dose IC50 mode with a 3-fold serial dilution starting at 10 μM. Control compound, staurosporine, was tested in 10-dose IC50 mode with 4-fold serial dilution starting at 20 μM.
Reaction Conditions: Buffer Conditions: 20 mM HEPES ((4-(2-hydroxyethyl)-1-piperazineethanesulfonic acid; pH 7.5), 10 mM MgCl2, 1 mM EGTA (Ethyleneglycol-bis(p-aminoethyl)-N,N,N′,N′-tetraacetic Acid), 0.01% Brij35, 0.02 mg/ml BSA (Bovine serum albumin), 0.1 mM Na3VO4, 2 mM DTT (Dithiothreitol), 1% DMSO. Reaction Procedure: 1. Prepare indicated substrate in freshly prepared reaction buffer. 2. Deliver required cofactors to the substrate solution above. 3. Deliver indicated kinase into the substrate solution and mix gently. 4. Deliver compounds in DMSO into the kinase reaction mixture utilizing acoustic technology (Echo550). 5. Deliver ^33P-ATP (specific activity 0.01 μCi/μl final) into the reaction mixture to initiate the reaction. 6. Incubate kinase reaction for 120 minutes at room temperature. 7. […] Data Analysis: Kinase activity data were expressed as the percent remaining kinase activity in test samples compared to vehicle (dimethyl sulfoxide) reactions. […]

IC50 | SMILES
33.3 nM | NCc1ccc(C(=O)Nc2ccncc2F)cc1-c1cccc(C(=O)Nc2ccc(SC[C@H]3CCOC3=O)cc2)c1 [S-enantiomer]
42.7 nM | NCc1ccc(C(=O)Nc2ccncc2F)cc1-c1cccc(C(=O)Nc2ccc(SC[C@@H]3CCOC3=O)cc2)c1 [R-enantiomer]
